According to patent publication US20110052551A1, “CARDIAC MYOCYTE MORPHOGENIC COMPOSITIONS AND METHODS OF USE THEREFOR” (priority 2008, published 2011):
Entries after “also recorded” stand apart in the source; their conditions may differ.

How the values were obtained:
Assay type in all cases: cell-based, mice
unfractionated BMMNCs [1] = test: qRT-PCR of Wnt11-induced cardiac gene expression with PKC and JNK inhibitors; details: 3 days in Wnt11-CM, BIM 1 μM, SP600125 10 μM
Method: Assessment of mRNA expression by quantitative real-time RT-PCR (qRT-PCR). All qRT-PCR reagents and primers were purchased from Qiagen Inc. (Valencia, Calif., United States of America). Prior to mRNA extraction, cell number was determined and calculated by Trypan blue exclusion. cDNA was generated from freshly isolated (designated as baseline) and cultured unfractionated BMMNCs at days 0, 3, 7, and 21 (see FIG. 9A) using QUANTISCRIPT REVERSE TRANSCRIPTASE™ (Qiagen Inc., Valencia, Calif., United States of America) contained in RT master mix of Cell to cDNA kits according to manufacturer's protocol. […]
To avoid amplification of contaminating DNA, all validated qRT-PCR primers were designed to cross […] sequences within the cDNA to be amplified. Quantitative qRT-PCR analysis was performed in an ABI Prism 7900H sequence detection system (Applied Biosystems, Foster City, Calif.) using QUANTITECT™ SYBR® Green Real Time PCR kits. Each 50 μl qRT-PCR reaction contained 2 μl (approximately 50 ng) of cDNA, 5 μl of 1× primer mix (containing approximately 500 nM sense and anti-sense primers) and 25 μl of 2× QUANTITECT™ SYBR® Green master mix. […]
The PCR product level is calculated from the threshold cycle (Ct). That is, the amplification cycle number at which exponential PCR-generated gene-specific fluorescence is first detected (above a fixed threshold level). […]

[2] = tested on: JNK phosphorylation in BMMNCs; test: Western immunoblotting of Wnt11-induced JNK phosphorylation; details: 1 μM, 3 hours in Wnt11-CM
Method: Assessment of Wnt signaling. To investigate non-canonical signaling pathways, freshly isolated unfractionated BMMNCs were cultured in Wnt11-CM or in empty vector (control) medium in the presence or absence of 1 μM of the PKC inhibitor bisindolylmaleimide I (BIM, Sigma) for 3 hours followed by harvest and assessment of JNK phosphorylation by Western immunoblotting (see below and FIG. 9B). The expression of cardiac-specific gene expression in unfractionated BMMNCs was assessed by qRT-PCR following culture for 3 days in Wnt11-CM and empty vector (control) medium with and without PKC (BIM; 1 μM) and JNK (SP600125; 10 μM; Sigma) inhibitors (see FIG. 9B). Expression of Wnt3a and β-catenin were measured by qRT-PCR to investigate the effect of control, Wnt3a medium, and Wnt11-CM on canonical signaling.
(§1) Western immunoblotting and quantitative ELISA. […] Gel transfer efficiency was recorded carefully by making photocopies of membranes dyed with reversible Ponceau staining; gel retention was determined by Coomassie blue staining. […] Immunoreactive bands were visualized with horseradish peroxidase-conjugated anti-goat and anti-rabbit IgG (Santa Cruz Biotechnology) using an ECL detection kit (New England Nuclear, Billerica, Mass., United States of America), quantified by densitometry, and normalized GAPDH. […]

unfractionated BMMNCs [3] = test: cTnI ELISA in cultured BMMNCs; details: for effect on Wnt11-induced expression of cTnI: 21 days of culture in Wnt11-CM
Method: Assessment of cardiac differentiation. For quantitative assessment of cardiomyocytic differentiation, an average of 2400 cells/plate were counted. Multiple fields from all 4 quarters of the plate were systematically evaluated. The number of cells expressing cardiac-specific intracellular contractile proteins in each field was counted; the total number of cells was calculated based on nuclear staining with DAPI. In addition, cells were concomitantly stained with markers specific for various non-cardiac lineages (skeletal muscle [myogenin]; neural [nestin, GFAP]; myeloid [CD11b, Gr-1]; and others; Zuba-Surma et al., 2006). Cells were counted as positive when they were positive for cardiac-specific contractile proteins and negative for all of these markers. Thus, a rigorous method was employed to assess cardiac differentiation in vitro. The percentage of cells differentiating into cardiomyocytes was calculated as the number of cells positive for proteins divided by the total number of nuclei in the field. These experiments were performed in triplicate. As a confirmatory measure, the expression of cardiac-specific troponin I (cTnI) was determined by ELISA as described hereinbelow following culture in Wnt11-CM with and without the Wnt inhibitor Dickkopf-1 (Dkk-1; see FIG. 9C).
as §1, with “ELISA. Western analysis was performed as described in Guo et al., 1998; Brandon et al., 2000; Li et al., 2003; and Li et al., 2006.” for “ELISA.”, “GAPDH. In all samples, the content of target protein was expressed as a percentage of the controls (untreated), normalized to GAPDH.” for “GAPDH.”

| Molecule | Wnt11-induced cardiac gene expression (unfractionated BMMNCs [1]) | Wnt11-induced cardiac gene expression (unfractionated BMMNCs [1]; listed as bisindolylmaleimide I) | Wnt11-induced JNK phosphorylation [2] | effect on Wnt11-induced expression of cTnI (unfractionated BMMNCs [3]) | effect on Wnt11-induced expression of cTnI (unfractionated BMMNCs [3]; listed as Dickkopf-1) | effect on cTnI expression by itself (unfractionated BMMNCs [3]; 21 days of culture, without Wnt11-CM) |
| --- | --- | --- | --- | --- | --- | --- |
| CN(C)CCCn1cc(C2=C(c3c[nH]c4ccccc34)C(=O)NC2=O)c2ccccc21 [BIM, bisindolylmaleimide I] | abolished; also recorded: no expression | completely abolished | completely blocked | – | – | – |
| Dkk-1: soluble inhibitor of canonical signaling that blocks Wnt-signaling at the cell surface (protein, UniProt O94907 32-266, looked up) Dickkopf-related protein 1: TLNSVLNSNAIKNLPPPLGGAAGHPGSAVSAAPGILYPGGNKYQTIDNYQPYPCAEDEECGTDEYCASPTRGGDAGVQICLACRKRRKRCMRHAMCCPGNYCKNGICVSSDQNHFRGEIEETITESFGNDHSTLDGYSRRTTLSSKMYHTKGQEGSVCLRSSDCASGLCCARHFWSKICKPVLKEGQVCTKHRRKGSHGLEIFQRCYCGEGLSCRIQKDHHQASNSSRLHTCQRH | – | – | – | reduced | attenuated | little effect |
